Reference: patent US20080221205A1, “FURAN DERIVATIVES FOR PREVENTING AND CURING OSTEOPOROSIS AND PHARMACEUTICAL COMPOSITIONS CONTAINING THE SAME” (priority 2002, published 2008)
Entries after “also recorded” stand apart in the source; their conditions may differ.

Tests used:
[1] = test system: ovariectomized white mice; assay: Preventive effect 1 on osteoporosis: tibia histology, oral administration after ovariectomy; type: in vivo; settings: 10 mg/day, four weeks from ovariectomy, versus untreated control
Method: (§1) In order to evaluate effects of the compound of the present invention on treatment and prevention of osteoporosis, female white mice with osteoporosis induced by ovariectomy were used as a disease model. After ovariectomy, mice were administered with the compound of the present invention. Tibias were dissected from the mice, and observed histologically.
(§2) After anesthetizing female white mice with 100 mg/kg of Ketamine (Ketara) and 0.15 ml/kg of 2% Xylazine (Rompun), the lumbar dorsum is shaved bilaterally and the exposed skin was prepared for aseptic surgery by a 10% povidone-iodine scrub followed by a 70% alcohol wipe.
A 1-cm incision was made in the central region of the abdomen, and the ovary was identified along with the uterus with caution not to damage the main organs such as the liver and diaphragm. After ligating the uterus with a thread for suturing, the exposed ovary was severed toward both sides and removed. Thereafter, each organ was relocated to its original position, and the incision was closed with a thread for suturing in an interrupted pattern. […]
The daily dosage of the Compound 1 per female white mouse was determined based on 250 g body weight. […] With caution not to exchange the water bottles between the groups, everyday, the number of mice was recorded, and the mixture was prepared based on the number of mice. […]

[2] = test system: ovariectomized white mice; assay: Therapeutic effect on osteoporosis: tibia histology, oral administration from four weeks after ovariectomy; type: in vivo; settings: four weeks to develop osteoporosis, then oral 220 μl/day for four weeks, versus control
Method: as §1, §2
A 1-cm incision was made in the central region of the abdomen, and the ovary was identified along with the uterus with caution not to damage the main organs such as the liver and diaphragm. After ligating the uterus with a thread for suturing, the exposed ovary was severed toward both sides and removed. Thereafter, each organ was relocated to its original position, and the incision was closed with a thread for suturing in an interrupted pattern. After ovariectomy, the mice were injected with 50 mg/kg of cefazolin antibiotic for prevention of infection with pathogens.
In order to evaluate therapeutic effect of the Compound 1 on osteoporosis, after ovariectomy, the mice were fed with solid feedstuff for four weeks. […]

[3] = test system: osteoclasts; assay: Resorption activity of osteoclasts on calcium phosphate-coated plates (resorption pit area); type: cell-based, mice; settings: concentration not given
Method: In order to investigate the effects of the Compound 1 on differentiation and activity of osteoclasts, when differentiation of osteoclast progenitors was induced, the activity of Tartrate-resistant acid phosphatase (TRAP) as an osteoclastic marker enzyme was investigated, and, when differentiated osteoclasts were cultured on calcium phosphate-coated plates (OAAS, OCT Inc.), resorption activity (formation of resorption pits) were measured.
First, bone marrow cells were isolated, as follow. After sacrificing 7-9 week female mice by cervical dislocation, femur and tibia were excised aseptically while removing attached soft tissues. After cutting both ends of long bones, 1 ml of an enzyme solution, containing 0.1% collagenase (Gibco), 0.05% trypsin and 0.5 mM EDTA (Gibco), was injected to the bone marrow cavity at one end using a syringe with a 26-guage needle, and bone marrow was then collected. After shaking the recovered bone marrow for 30 min, bone marrow cells were collected, and cultured in α-minimum essential medium (α-MEM) supplemented with 10% FBS for 24 hrs. […]
The differentiated osteoclasts were cultured on calcium phosphate-coated plates (OAASTM, OCT, Korea) in order to evaluate resorption activity of the cells. […] After washing again with distilled water and drying the plates, the area of formed resorption pits was calculated by means of an Image Pro Plus software. […]

O=Cc1ccc(CO)o1 [Compound 1, 5-hydroxymethylfuran-2-carboxyaldehyde]
Trabecular and cortical bone of tibia, light microscopy [1]: trabecular bone loss was not observed; also recorded: marked increase in the cortical and trabecualr bone; also recorded: no trabecular bone loss
Trabecular bone density of tibia, light microscopy [2]: just a slight decrease in trabecular bone density; also recorded: no trabecular bone loss
Area of resorption pits compared to control [3]: about 50%
Area of resorption pits compared to control ([3]; listed as compound prepared in Example 1): inhibit bone resorption activity of osteoclasts
